The text below walks through data of PubChem BioAssay AID720495 (Broad Institute, 2013).

The assay deals with Protein AF-9 (Homo sapiens) (UniProt P42568). The assay is described as follows: AF9 binding to AF4 blockers, potency – biochemical, cherry-picked samples, plate reader, dose response (AID 720495). The conditions noted are these: biochemical protein-protein interaction assay; for activity change, negative = inhibition: at 10 µM (top of the series).

Results filed as inconclusive are left out. Calls of active or inactive are those of the source. No rule for the calls is given here.

Sequence of Protein AF-9 (Homo sapiens) (P42568 whole entry, looked up): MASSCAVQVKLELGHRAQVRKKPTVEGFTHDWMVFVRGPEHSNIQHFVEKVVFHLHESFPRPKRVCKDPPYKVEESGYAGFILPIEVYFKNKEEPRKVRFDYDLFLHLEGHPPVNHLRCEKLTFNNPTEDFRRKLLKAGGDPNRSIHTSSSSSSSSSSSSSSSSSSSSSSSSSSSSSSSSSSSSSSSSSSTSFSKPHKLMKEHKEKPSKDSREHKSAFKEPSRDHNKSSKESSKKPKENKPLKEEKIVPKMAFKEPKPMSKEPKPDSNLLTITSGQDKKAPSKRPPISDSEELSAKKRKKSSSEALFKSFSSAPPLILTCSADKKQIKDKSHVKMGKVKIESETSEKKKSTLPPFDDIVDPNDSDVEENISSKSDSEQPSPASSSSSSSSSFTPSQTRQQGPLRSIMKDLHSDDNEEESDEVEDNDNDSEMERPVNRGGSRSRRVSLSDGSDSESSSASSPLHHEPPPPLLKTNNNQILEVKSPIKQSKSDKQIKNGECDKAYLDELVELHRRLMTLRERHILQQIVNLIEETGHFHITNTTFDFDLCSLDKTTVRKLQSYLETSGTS

For the molecule `C#CCOCCOCCOCCNc1nc(N2CCN(C(=O)[C@H](CCCCN)n3cc([C@@H](N)C(C)CC)nn3)CC2)nc(N2CCN(C(=O)[C@H](CCCCN)n3cc([C@@H](N)CC(C)C)nn3)CC2)n1` (stereo partly specified), the half-maximal activity concentration (AC50) (in general, the concentration giving half of the maximal activity seen) is 0.702 µM.

As to `CN(C)CCCN1c2ccccc2Sc2ccc(Cl)cc21`, the “activity change, negative = inhibition” value is “inactive”.

For the molecule `Cc1ccc(S(=O)(=O)NC(=O)Nc2ccc(N(C)C)cc2)cc1`, the “activity change, negative = inhibition” value was “inactive”.

Take `CN1CCN(C2CCN(Cc3ccc(O)c4ncccc34)CC2)CC1`: the AC50 is 2.77 µM.

For `CN(C)CC/C=C1/c2ccc(F)cc2Sc2ccc(Cl)cc21`, the concentration at half-maximal activity (AC50) was 5.01 µM.

For `COc1ccccc1C(CCNCc1ccc(N(C)C)cc1)c1ccc(OC(C)C)cc1` (stereo unspecified), the concentration at half-maximal activity (AC50) is 3.3 µM.

Take `CC[n+]1c(/C=C/c2ccc(N(C)C)cc2)ccc2ccccc21`: the AC50 is 8.28 µM.

For the molecule `CN=c1scc(-c2ccc(OC)cc2)n1/N=C(\C)c1cccnc1`, the “activity change, negative = inhibition” value is “inactive”.

Regarding `Cc1ccc2nc(-c3ccc(NC(=S)NC4CC(C)(C)NC(C)(C)C4)cc3)sc2c1`, the AC50 is 7.34 µM.

Consider `Oc1cc(-c2ccncc2)cc2cccnc12`, for which the AC50 was 3.01 µM.

For `CCn1c(-c2ccccc2)csc1=Nc1ccc(O)cc1`, the concentration at half-maximal activity (AC50) was 6.97 µM.

With `Brc1ccc(N/N=C(/N=Nc2nn[nH]n2)c2ccccc2)cc1`, the half-maximal activity concentration (AC50) is 5.84 µM.

On to `CCN(CC)c1ccc(N=Cc2cc(Br)ccc2O)cc1`, for which the “activity change, negative = inhibition” value is “inactive”.

On to `CCSc1ccc(-c2cc(NC=O)c3ncc(-c4cccc(C(=O)NCCN(C)C)c4)n3c2)cc1`, for which the AC50 was 0.798 µM.

With `Cc1cccc(NC2=C(NCCO)C(=O)c3ccccc3C2=O)c1`, the concentration at half-maximal activity (AC50) was 3.55 µM.

As to `CC(=O)c1ccc(OCC(=O)Nc2ccc(N3CCCCC3)cc2)cc1`, the “activity change, negative = inhibition” value was “inactive”.

Turning to `Cc1[nH]c2ccccc2c1C(C#N)(C#N)C1C(=O)c2ccccc2C1=O`, the AC50 was 0.981 µM.

As to `CC1C/C(=C/c2cccs2)C(=O)/C(=C/c2cccs2)C1` (stereo unspecified), the “activity change, negative = inhibition” value is “inactive”.

Take `Cc1c(P(=S)(c2ccccc2)c2ccccc2)[n+]2ccccc2n1C`: the AC50 is 7.98 µM.

With `CN(C(=O)c1ccc(NC(=O)Cc2ccc(NC(=O)C3CCN(C(=O)c4ccccc4)CC3)cc2)cc1)C1CC1`, the concentration at half-maximal activity (AC50) was 0.233 µM.

As for `CN(C)c1ccc(C=c2c3cc(O)ccc3n3c2cc(-c2ccccc2)[n+]3C)cc1`, the AC50 was 0.975 µM.

Turning to `CN1CCN(C(c2ccc(Cl)cc2)c2cc(Cl)c3cccnc3c2O)CC1` (stereo unspecified), the AC50 is 0.984 µM.

Take `COc1ccc(NCc2ccc(OC)c(Cn3ccnc3)c2)c(OC)c1`: the half-maximal activity concentration (AC50) is 11.2 µM.

In the case of `CN(C)CCCNC(=O)c1ccc(-c2cc(O)c3ncccc3c2)cc1`, the concentration at half-maximal activity (AC50) was 0.693 µM.

In the case of `COc1cccc(OCC(O)CN2CCC(CN3C(=O)c4cccc5cccc(c45)C3=O)CC2)c1` (stereo unspecified), the “activity change, negative = inhibition” value is “inactive”.

As to `CC(C)(C)C1=CC(=Nc2ccccc2N)C=C(C(C)(C)C)C1=O`, the concentration at half-maximal activity (AC50) is 0.761 µM.

Take `CN(C)c1ccc(N=Nc2ccccc2Br)cc1`: the AC50 is 10.3 µM.

With `O=C(Nc1cccc(CNCCc2c[nH]c3ccccc23)c1)c1ccccc1Cl`, the “activity change, negative = inhibition” value is “inactive”.

For `COC1=C(Nc2ccccc2OC)C(=O)c2ccccc2C1=O`, the AC50 is 3.9 µM.

Take `CN(C)CCNC(=O)c1cccc(-c2cnc3c(NC=O)cc(/C=C/c4ccccc4)cn23)c1`: the AC50 is 0.523 µM.

As for `Oc1c(C(c2ccccn2)N2CCCCC2)cc(Cl)c2cccnc12` (stereo unspecified), the AC50 is 1.84 µM.

Turning to `CCOC(=O)C1CCN(C2=C(NS(=O)(=O)c3ccc(Cl)cc3)C(=O)c3ccccc3C2=O)CC1`, the “activity change, negative = inhibition” value is “inactive”.

On to `Cc1cc2c(=Cc3ccc(N(C)C)cc3)c3ccccc3n2[n+]1C`, for which the “activity change, negative = inhibition” value is “inactive”.

Turning to `CCN1CCN(c2ccc(N)cc2)CC1`, the AC50 is 1.54 µM.

As for `CCN1CCN(c2ccc(N)c(C)c2)CC1`, the “activity change, negative = inhibition” value was “inactive”.

In the case of `O=C(/C(=N/N=C/c1ccc(O)c(O)c1)c1ccccc1)c1ccccc1`, the AC50 was 1.62 µM.

Turning to `NC(=NCCCCCCN=C(N)/N=C(\N)Nc1ccc(Cl)cc1)/N=C(\N)Nc1ccc(Cl)cc1`, the AC50 is 5.27 µM.

Consider `Cn1ccc2c(/C=C/c3ccc(F)cc3)cc3c(c21)C1CCC3C1` (stereo unspecified), for which the “activity change, negative = inhibition” value is “inactive”.

Turning to `Cc1cc(N=Nc2ccc(Cl)cc2)cc(CN2CCCC2)c1O`, the “activity change, negative = inhibition” value was “inactive”.

As to `COc1ccc(S(=O)(=O)/N=C2\C=C(Nc3ccc(O)cc3)C(=O)c3ccccc32)cc1`, the half-maximal activity concentration (AC50) was 0.724 µM.

Regarding `COc1cc2c(cc1N)-c1ccc(N)cc1C2=O`, the “activity change, negative = inhibition” value is “inactive”.

Take `CN(C)c1ccc(NC(=S)NC23CC4CC(CC(C4)C2)C3)cc1`: the “activity change, negative = inhibition” value was “inactive”.

With `CCC(=O)N1CC2(CCN(Cc3ccc(Cl)cc3)CC2)c2c([nH]c3cc(OC)ccc23)[C@H]1CO`, the half-maximal activity concentration (AC50) is 10.4 µM.

Regarding `O=C(O)CCCNc1cc(N2CCN(C(=O)c3ccco3)CC2)c2noc3c2c1C(=O)c1ccccc1-3`, the concentration at half-maximal activity (AC50) was 10.6 µM.

On to `CCOc1cc(CNc2cccc3[nH]c(C)nc23)ccc1OC`, for which the “activity change, negative = inhibition” value is “inactive”.

Regarding `Cc1[nH]c2ccccc2c1N=Nc1ccccc1F`, the AC50 is 10.2 µM.

Consider `COc1ccc(CN2CC3(C2)CN(Cc2ccc4c(c2)OCO4)[C@H](CO)c2[nH]c4cc(OC)ccc4c23)cc1`, for which the “activity change, negative = inhibition” value is “inactive”.

For the molecule `CN(C)c1ccc(/C=C/C=C/c2sc3ccccc3[n+]2C)cc1`, the half-maximal activity concentration (AC50) is 2.09 µM.

As for `c1ccc(N=Nc2ccc3cccccc2-3)cc1`, the AC50 is 0.232 µM.

Turning to `COc1ccc(N2CCN(CCCNC(=O)C(=O)c3c(C)n(C)c4ccccc34)CC2)cc1`, the “activity change, negative = inhibition” value is “inactive”.

Take `COc1ccc(C)cc1Nc1n[n+](-c2ccccc2)c(-c2c(Cl)cccc2Cl)s1`: the “activity change, negative = inhibition” value is “inactive”.

As to `CCN(CC)c1ccc(N=C2C(=O)Nc3ccccc32)cc1`, the half-maximal activity concentration (AC50) is 2.77 µM.

For the molecule `COc1ccccc1N(C(C)=O)C1=C(Cl)C(=O)c2ccccc2C1=O`, the concentration at half-maximal activity (AC50) is 7.96 µM.

In the case of `CN1\C(=C/C=C/C=C/C=[N+](C)C)C(C)(C)c2ccccc21`, the half-maximal activity concentration (AC50) is 9.97 µM.

`O=C1C(Cl)=CC(=Nc2ccc(O)cc2)C=C1Cl`: the AC50 was 11.4 µM.

On to `NC(=O)C1CCN(C2=C(NS(=O)(=O)c3ccc(Br)cc3)C(=O)c3ccccc3C2=O)CC1`, for which the “activity change, negative = inhibition” value was “inactive”.

Take `CCN(CC)CCSc1nc2ccccc2c(=S)n1-c1ccccc1`: the “activity change, negative = inhibition” value was “inactive”.

For `C(=C\c1ccc2ccccc2n1)/c1ccccc1`, the “activity change, negative = inhibition” value is “inactive”.

As to `CN1CCN(/N=C/c2ccc(-c3ccc([N+](=O)[O-])cc3Cl)o2)CC1`, the AC50 was 9.35 µM.

Consider `CSC(=S)N/N=C/c1c[nH]c2ccccc12`, for which the AC50 was 11.5 µM.

On to `Cc1ccc(NC(=S)N(CCCN2CCCC2)Cc2cccn2Cc2ccc(Cl)cc2)cc1`, for which the “activity change, negative = inhibition” value was “inactive”.

With `COc1cccc(-c2sc3ccccc3c2-c2ccc(OCCN(C)C)cc2)c1`, the “activity change, negative = inhibition” value was “inactive”.

Turning to `COc1ccc(N2CCN(C3CCCN(S(=O)(=O)c4ccc(C)cc4C)C3)CC2)cc1` (stereo unspecified), the “activity change, negative = inhibition” value was “inactive”.

Regarding `CCCCOc1ccc2c(c1)C(=O)c1cc(O)ccc1-2`, the “activity change, negative = inhibition” value was “inactive”.

Take `CCOC(=O)c1c(-c2ccc(-c3ccccc3)cc2)csc1NC(=O)CNCCN(C)C`: the half-maximal activity concentration (AC50) was 5.86 µM.

In the case of `COc1cc(OC)c2c(c1C(CCN1CCOCC1)c1ccc(N(C)C)cc1)OC(=O)CC2c1ccc(N(C)C)cc1` (stereo unspecified), the concentration at half-maximal activity (AC50) is 10.7 µM.

Regarding `Nc1ccccc1Nc1cc(-c2ccccc2)nn1-c1cccc(Cl)c1`, the “activity change, negative = inhibition” value is “inactive”.

Regarding `Fc1ccc([C@@H]2CCNC[C@H]2COc2ccc3c(c2)OCO3)cc1`, the “activity change, negative = inhibition” value is “inactive”.

Turning to `CN1CCN(c2ccc(S(=O)(=O)N3CCCCC3)cc2NC(=O)/C=C/c2ccc(Cl)c([N+](=O)[O-])c2)CC1`, the “activity change, negative = inhibition” value was “inactive”.

With `Cc1cc2c(OCC(O)CNC3CCCCC3)cccc2[nH]1` (stereo unspecified), the “activity change, negative = inhibition” value was “inactive”.

`CC(C)Nc1ccc(Nc2ccnc3cc4ccccc4cc23)cc1`: the concentration at half-maximal activity (AC50) was 2.45 µM.

Turning to `C[C@@H]1CN([C@@H](C)CO)C(=O)c2cc(N(C)C)ccc2O[C@@H](C)CCCCO[C@@H]1CN(C)Cc1ccc(C(F)(F)F)cc1`, the half-maximal activity concentration (AC50) was 10.5 µM.

Take `Cc1csc(Nc2ccccc2)[n+]1-c1ccccc1`: the “activity change, negative = inhibition” value was “inactive”.

In the case of `COc1cc(C2CC(=O)Oc3c(C(CCN4CCOCC4)c4ccc(N(C)C)cc4)c(OC)cc(OC)c32)cc(OC)c1OC` (stereo unspecified), the AC50 was 1.55 µM.

Regarding `O=C1CN=C(c2ccc(Br)cc2)c2c(sc3c2CCCC3)N1CCN1CCCCC1`, the “activity change, negative = inhibition” value was “inactive”.

For the molecule `COc1ccc(N2CCN(C(=O)C3CCCN(S(=O)(=O)c4c(C)noc4C)C3)CC2)cc1` (stereo unspecified), the “activity change, negative = inhibition” value is “inactive”.

Take `C#CCOCCOCCOCCNc1nc(N2CCN(C(=O)C([C@@H](C)O)n3cc([C@@H](N)CCCCN)nn3)CC2)nc(N2CCN(C(=O)C([C@@H](C)O)n3cc([C@@H](N)CCCCN)nn3)CC2)n1` (stereo partly specified): the “activity change, negative = inhibition” value is “inactive”.

As to `CCOC(=O)/C(C#N)=C/c1c(N2CCN(Cc3ccc4c(c3)OCO4)CC2)nc2c(C)cccn2c1=O`, the “activity change, negative = inhibition” value is “inactive”.

Regarding `Oc1cc(Nc2cccnc2)cc2cccnc12`, the AC50 is 6.03 µM.

For `NC(N)=NCCCS(=O)(=O)Nc1ccc(Nc2c3ccccc3nc3cc([N+](=O)[O-])ccc23)cc1`, the AC50 is 2.85 µM.

Regarding `COc1ccc(N2CCC(CNC(=S)Nc3ccc(C)cc3C)C2)cc1` (stereo unspecified), the “activity change, negative = inhibition” value is “inactive”.

As to `O=C(O)CCNc1ccc(NCCC(=O)O)c2c1C(=O)c1ccccc1C2=O`, the “activity change, negative = inhibition” value was “inactive”.

Turning to `CCC(=O)N(C)C[C@H]1Oc2cc(C#Cc3ccncc3)ccc2S(=O)(=O)N([C@@H](C)CO)C[C@@H]1C`, the “activity change, negative = inhibition” value is “inactive”.

Turning to `C[C@H](CO)N1C[C@H](C)[C@@H](CN(C)Cc2ccc(Oc3ccccc3)cc2)Oc2ccc(N(C)C)cc2C1=O`, the half-maximal activity concentration (AC50) is 10.7 µM.

Take `S=C(c1ccc(-c2cccc(Cl)c2)o1)N1CCOCC1`: the “activity change, negative = inhibition” value was “inactive”.

Consider `CC1NC(=O)NC1CCCCCC(=O)Nc1ccc(F)cc1` (stereo unspecified), for which the concentration at half-maximal activity (AC50) is under 0.08 µM.
